Assay [1] concerns mouse models with middle cerebral artery occlusion. Put plainly: Mouse models with middle cerebral artery occlusion (MCAO, 2 h) and reperfusion: neurological symptoms, cerebral infarction size and volume. The assay is classed as in vivo. Conditions: for Distribution of neurological scores: score 0 (number of mice) / Distribution of neurological scores: score 1 (number of mice) / Distribution of neurological scores: score 2 (number of mice) / Distribution of neurological scores: score 3 (number of mice) / Neurological scores Mean ± SEM: scored 22 hours after reperfusion, n = 9; for Neurological scores Mean ± SEM: score 0-3. The source says:
Mouse models with acute ischemic stroke, namely, mouse models with middle cerebral artery occlusion were used as evaluation systems. The experiment consists of three experiments, i.e., Experiment 1 to evaluate the therapeutic efficacy of fidarestat (control group and fidarestat administration group), Experiment 2 to evaluate the protective effect of fidarestat (control group and fidarestat administration group), and Experiment 3 to evaluate the role of AR (wild-type mouse group and AR gene-deficient mouse group).
Used mice (C57BL/6J line, 22 to 28 g of body weight) were subjected to right middle cerebral artery occlusion (MCAO) by the filament method under gas anesthesia over 2 hours. Thereafter, anesthesia was terminated and the mice were kept in an intensive care system (ThermoCare, Inc) at 32° C. for 4 to 6 hours. The neurological symptoms, the cerebral infarction size, and the cerebral infarction volume were used as endpoints.
The evaluation of the neurological symptoms was determined 22 hours after reperfusion based on the following four scores:
0: no neurological deficit (normal); 1: stretching of the opposite forefoot (mild); 2: contra lateral circling (moderate); and 3: loss of walking and righting reflex (severe).
Evaluations of the cerebral infarction size and the cerebral infarction volume were performed as follows. After the evaluation of the neurological symptoms, the mouse brains were removed immediately and cut into 6 coronary slices with a thickness of 2 mm. In order to discover the sites of infarction, the slices were stained with 2% triphenyltetrazolium chloride (TTC) in a darkroom for 15 minutes and then fixed in 10% formalin buffer overnight. The posterior surface of each brain slice was photographed and analyzed using a digital image analyzing system (NeuroLucida, MicroBrightfield Inc.) The cerebral infarction size and the cerebral infarction volume (%) were calculated by an indirect method.
In Experiment 1 to evaluate the therapeutic efficacy of fidarestat, fidarestat was administered to the mice at 2 mg/kg 15 minutes before reperfusion. In Experiment 2 to evaluate the protective effect of fidarestat, fidarestat was administered to the mice at 10 mg/kg 30 minutes before occlusion. Only solvent was administered to the control group. In each case, forced intragastric administration was carried out.

The conditions of assay [2]: as reported in Hatsumei Kyokai Kokai Giho No. 2006-500058; cited from earlier work.
[3] abbreviates: Experiment 1 (therapeutic efficacy): 2 mg/kg intragastric 15 minutes before reperfusion.
The mark [4] stands for this setting: Experiment 2 (protective effect): 10 mg/kg intragastric 30 minutes before occlusion.

The source of these data is US20090076105A1, “PREVENTIVE OR THERAPEUTIC AGENT FOR CEREBRAL ISCHEMIC INJURY OR CEREBRAL ISCHEMIA REPERFUSION IN STROKE” (SANWA KAGAKU KENKYUSHO CO., LTD., priority 2006, published 2009).

As for `NC(=O)[C@@H]1C[C@]2(NC(=O)NC2=O)c2cc(F)ccc2O1` [Fidarestat, (2S,4S)-6-fluoro-2′,5′-dioxospiro[chroman-4,4′-imidazolidine]-2-carboxamide], the “Cerebral infarction size observed after ischemic reperfusion” value in assay [1] (Experiment 1 (therapeutic efficacy): 2 mg/kg 15 minutes before reperfusion, FIG. 1, brain slice Nos. 3 and 4) is reported as “significantly reduced”. Besides, in assay [1] (Experiment 1 (therapeutic efficacy): 2 mg/kg 15 minutes before reperfusion, FIG. 4), the Cerebral infarction volume entry is “the same result was also obtained”. Moreover, in assay [1] (setting [3]), the “(Dead) number of mice” value is listed as “(n = 2)”, the “Distribution of neurological scores: score 0 (number of mice)” value was 0, the “Distribution of neurological scores: score 1 (number of mice)” value is recorded as 7 and the “Distribution of neurological scores: score 2 (number of mice)” value came to 2. In addition, in assay [1] (setting [3]), the “Distribution of neurological scores: score 3 (number of mice)” value was 0. The “Neurological scores Mean ± SEM” value in assay [1] (Experiment 1 (therapeutic efficacy): 2 mg/kg intragastric 15 minutes before reperfusion, P < 0.02 vs vehicle) amounted to 1.22 ± 0.15. Moreover, the “Cerebral infarction size observed after ischemic reperfusion” value in assay [1] (Experiment 2 (protective effect): 10 mg/kg 30 minutes before occlusion, FIG. 2, brain slice Nos. 3 and 4) is reported as “significantly reduced”. Further, the Cerebral infarction volume entry in assay [1] (Experiment 2 (protective effect): 10 mg/kg 30 minutes before occlusion, FIG. 5) was “the same result was also obtained”. In assay [1] (setting [4]), the “Distribution of neurological scores: score 0 (number of mice)” value is given as 0, the “Distribution of neurological scores: score 1 (number of mice)” value was found to be 7, the “Distribution of neurological scores: score 2 (number of mice)” value was found to be 2 and the “Distribution of neurological scores: score 3 (number of mice)” value is on record as 0. For the same compound, in assay [1] (Experiment 2 (protective effect): 10 mg/kg intragastric 30 minutes before occlusion, P < 0.05 vs vehicle), the “Neurological scores Mean ± SEM” value worked out at 1.22 ± 0.14. Besides, the “Effect on the worsening of the neurological symptoms observed after ischemic reperfusion” value in assay [1] (Experiments 1 and 2 (2 mg/kg 15 minutes before reperfusion; 10 mg/kg 30 minutes before occlusion)) was “significant effect”. The “Pharmacological effect on the blood coagulation system and the circulatory system” value in assay [2] is reported as “no pharmacological effect”.
